Laboratory results as given in article PMC8369502, “High-Throughput Drug Screening System Based on Human Induced Pluripotent Stem Cell-Derived Atrial Myocytes ∼ A Novel Platform to Detect Cardiac Toxicity for Atrial Arrhythmias” (Frontiers in Pharmacology, 2021).
“And” between values parts separate entries of the source, which are not always exact repeats. Equal values may be shown once. “Also recorded” adds a separate entry of the source. Read-outs that look alike come from different tables or passages of the source.

Legend:
human atrial myocytes = tested on: human atrial myocytes; set-up: method as in Lagrutta et al., 2006; conditions: ref Lagrutta et al., 2006; cited from earlier work
[1] = tested on: AM (RA-treated hiPS-CMs, atrial-like); assay: High-throughput membrane potential recording (FluoVolt, FDSS/μCell) in AM; format: cell-based, human; conditions: for rising slope of membrane potential (in words): concentration range as stated in the source; for cessation of beating (cases): count of cases
Protocol: (§1) Using a high-throughput screening system (FDSS/μCell), we assessed the drug toxicity of several experimental drugs on hiPS-derived atrial myocytes as well as control hiPS-derived cardiomyocytes. Membrane potential was used as one of the parameters during the assessment.
(§2) After purification, hiPS-derived cardiomyocytes were plated in 96-well plates for downstream drug response assessment using FluoVolt™ Membrane Potential Kit. […] The comparison of variance in the response of drug administration in CT and AM was represented by the percentage of changes based on their baseline values respectively.
(§3) FluoVolt™ Membrane Potential Kit (ThermoFisher […], F10488, Massachusetts, United States) was used to measure membrane potentials. The basic procedure was performed in accordance with the manufacturer’s instructions. […] MP were recorded at excitation and emission stages at wavelengths of 470 and 540 nm, respectively. […] Stock solutions of the test compounds were prepared in 100% DMSO, and serially diluted 1/40 into compound plates for testing (0.5% DMSO was the maximum concentration in all wells). The compounds were automatically pipetted from the compound plate, and 12 μL was loaded in the wells already containing the cells with 48 μL of media. Recording data were analyzed using Waveform Analysis of Cardiomyocyte Software (Ver.1.2.1J, Hamamatsu Photonics K.K.). Data values for a well were averaged from waveforms that arose during 30 s. The beat rate (BR; beats per minute), waveform amplitude (AMP), and duration at 30, 50, and 80% of decay (PWD30, PWD 50, and PWD 80, respectively) were used as evaluation parameters. PWDs were corrected using the Fridericia formula. PWD30-80 was calculated as the difference between PWD80 and PWD30. Each parameter was calculated as percentage change (%) from the value before test compound addition.

[2] = tested on: CT (control hiPS-CMs without RA, ventricular-like); assay: High-throughput membrane potential recording (FluoVolt, FDSS/μCell) in CT; format: cell-based, human; conditions: for Falling Slope / Rising Slope / PWD30cF / PWD80cF: % change from value before compound addition, 10 min after addition (Bay K 8644: 3 min)
Protocol: as §1, §2, §3

Cav1.2 current = tested on: Cav1.2 current; set-up: method as in Kramer et al., (2013), Harmer et al., (2011); conditions: ref Kramer et al., (2013), Harmer et al., (2011); cited from earlier work
[3] = tested on: cardiac Na+ channel (Nav1.5); conditions: cited from earlier work
[4] = tested on: ventricular myocytes of guinea pigs; set-up: method as in Delaunois et al., 2015; conditions: 75 μM; ref Delaunois et al., 2015; cited from earlier work
[5] = tested on: ventricular function and porcine ventricular myocytes; set-up: method as in Knobloch et al., 2002; conditions: ref Knobloch et al., 2002; cited from earlier work
atrial refractory period = tested on: atrial refractory period; set-up: method as in Knobloch et al., 2002; conditions: ref Knobloch et al., 2002; cited from earlier work
[6] = % change from value before compound addition, 10 min after addition (Bay K 8644: 3 min)
[7] = concentration range as stated in the source

| Compound | PWD30cF (in words) [1] | PWD50cF (in words) [1] | PWD30cF [1, 6] | concentration at which cessation of beating was elicited [2] | membrane potential duration (in words) [2] | incidence of arrhythmia-like waveforms: arrest ([2]; 30 μM) [%] | incidence of arrhythmia-like waveforms: arrest ([2]; 100 μM) [%] | Falling Slope [2] | Rising Slope [2] | falling slope of membrane potential (in words) [2, 7] | rising slope of membrane potential (in words) [2, 7] | incidence of arrhythmia-like waveforms: arrest ([1]; 10 μM) [%] | incidence of arrhythmia-like waveforms: arrest ([1]; 30 μM) [%] | incidence of arrhythmia-like waveforms: arrest ([1]; 100 μM) [%] | Rising Slope [1, 6] | rising slope of membrane potential (in words) [1] | amplitude of membrane potential (in words) [2] | PWD30cF [2] | PWD80cF [2] | other results |
| --- | --- | --- | --- | --- | --- | --- | --- | --- | --- | --- | --- | --- | --- | --- | --- | --- | --- | --- | --- | --- |
| CC(C)[C@@H]1CC[C@@H](C)C[C@@H]1P(=O)(c1ccccc1)c1ccccc1 [DPO-1] | dose-dependent increases; also recorded: prolongation | dose-dependent increases; also recorded: prolongation | ↑ |  |  |  |  |  |  |  |  |  |  |  |  |  |  |  |  | action potentials in human atrial myocytes (human atrial myocytes): prolongation of action potentials |
| O=C1NC(=O)C(c2ccccc2)(c2ccccc2)N1 [Phenytoin] |  |  |  | higher than 30 μM | slight shortening | 83 | 100 | ↑ | ↓ | increase | dose-dependent decrease | 50 | 67 | 100 | ↓ | dose-dependent decrease |  |  |  | IC50 (Cav1.2 current): 21.9 µM; IC50 ([3]; ref Kramer et al., (2013), Harmer et al., (2011), read-out: IC50 cardiac Nav1.5 current): 72.4 µM and 121 µM |
| NC(=O)N1c2ccccc2C=Cc2ccccc21 [Carbamazepine] |  |  |  | above 30 μM | shortened | 8 | 92 | ↑ | ↓ | increase | decrease |  | 50 | 83 | ↓ | decrease | decrease | ↓ | ↓ | concentration at which irregular beating or EAD appeared [2]: above 30 μM; incidence of arrhythmia-like waveforms: irregular beat ([2]; 30 μM): 25%; incidence of arrhythmia-like waveforms: irregular beat ([2]; 100 μM): 8%; cessation of beating (cases) ([2]; 100 μM, count of cases): 11 of 12; beating rate (in words) [2, 7]: decrease; APD50 [4]: shortening; APD90 [4]: shortening; Vmax [4]: decrease; other parameters of membrane potential (in words) [1]: no obvious change was observed; cessation of beating (cases) ([1]; 30 μM): half the cases; cessation of beating (cases) ([1]; 100 μM): 5 of 6; IC50 ([3]; ref Harmer et al., 2011, read-out: IC50 cardiac Na+ channel (Nav1.5)): 152 µM |
| O=C(NCc1ccccc1-c1ccccc1C(=O)NCCc1ccccn1)OCc1ccccc1 [S9947] | prolongation | prolongation | ↑ |  |  |  |  | ↑ | ↓ |  |  | 100 |  |  |  |  | decrease | ↓ | ↓ | incidence of arrhythmia-like waveforms: arrest ([2]; 10 μM): 50%; cessation of beating / arrest (cases) ([2]; 10 μM, count of cases): half; ventricular function and porcine ventricular myocytes [5]: did not affect; atrial refractory period (atrial refractory period): prolonged; membrane potential duration (in words) [1]: dose-dependent increase; cessation of beating / arrest (cases) ([1]; 10 μM, count of wells): All; PWD80cF [1, 6]: ↑ |
